The text below walks through data of patent US7947738B2, “Bicyclic γ-amino acid derivative” (Daiichi Sankyo Company, Ltd., priority 2007, dated 2011).

Structures can show the parent of a compound that is named as a salt.

T1 sequence (P54289 25-1091 isoform P54289-2 limits assumed): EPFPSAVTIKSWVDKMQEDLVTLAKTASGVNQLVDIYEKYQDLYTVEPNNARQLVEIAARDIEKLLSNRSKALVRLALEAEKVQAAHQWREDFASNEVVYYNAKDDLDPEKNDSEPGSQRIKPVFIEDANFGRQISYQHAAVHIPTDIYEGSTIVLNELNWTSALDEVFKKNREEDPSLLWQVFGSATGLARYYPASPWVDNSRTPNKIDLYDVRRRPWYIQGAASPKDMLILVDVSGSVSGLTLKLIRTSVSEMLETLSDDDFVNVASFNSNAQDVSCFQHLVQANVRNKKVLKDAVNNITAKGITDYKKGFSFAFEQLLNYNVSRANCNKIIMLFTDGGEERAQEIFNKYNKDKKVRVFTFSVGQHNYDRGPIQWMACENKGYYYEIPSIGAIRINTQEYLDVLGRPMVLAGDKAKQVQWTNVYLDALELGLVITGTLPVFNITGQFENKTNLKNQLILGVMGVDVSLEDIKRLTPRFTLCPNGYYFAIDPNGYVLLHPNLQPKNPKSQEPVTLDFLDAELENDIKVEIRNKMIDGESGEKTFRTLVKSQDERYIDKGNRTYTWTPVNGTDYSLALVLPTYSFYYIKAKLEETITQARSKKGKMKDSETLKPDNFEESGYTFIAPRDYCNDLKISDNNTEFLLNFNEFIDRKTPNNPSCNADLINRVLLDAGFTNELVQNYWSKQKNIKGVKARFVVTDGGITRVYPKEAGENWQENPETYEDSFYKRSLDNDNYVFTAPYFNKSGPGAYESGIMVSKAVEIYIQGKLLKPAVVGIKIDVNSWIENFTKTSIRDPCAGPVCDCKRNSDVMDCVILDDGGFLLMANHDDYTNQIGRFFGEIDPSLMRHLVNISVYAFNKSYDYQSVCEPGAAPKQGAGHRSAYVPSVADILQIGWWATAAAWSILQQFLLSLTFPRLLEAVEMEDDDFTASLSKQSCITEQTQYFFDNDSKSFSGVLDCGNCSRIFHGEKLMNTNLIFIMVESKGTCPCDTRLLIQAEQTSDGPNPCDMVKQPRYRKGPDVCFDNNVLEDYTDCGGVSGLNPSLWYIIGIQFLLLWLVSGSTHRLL

The first data set addresses T1, human Cacna2d1 (human calcium channel subunit α2δ1) (Homo sapiens, UniProt P54289).
T1 construct: 293 cells were transfected with the human Cacna2d1 expression plasmid pRK/hCacna2d1 constructed in paragraph a); expressed in transfected cells; membrane fraction
Kind of data set: Cacna2d1/GBP binding reaction inhibitory activity (3H-GBP binding to human Cacna2d1-expressing cell membrane fraction). As to conditions: IC50 (nM), concentration inhibiting 50% of Cacna2d1/GBP binding, 3H-GBP 4.5 nM, 4° C. How it is done:
293 cells were transfected with the human Cacna2d1 expression plasmid pRK/hCacna2d1 constructed in paragraph a), and a cell line stably expressing human Cacna2d1 was obtained with human Cacna2d1 protein expression as an index. Specifically, 2×10^6 293 cells were inoculated onto a φ6 cm dish and cultured for 12 hours. Then, the cells were cotransfected with 5 μg of pRK/hCacna2d1 and 0.5 μg of a neomycin-resistant gene expression plasmid pSV2neo (Clontech) using a transfection reagent Lipofectamine Plus (Invitrogen Corp.) according to the protocol provided for the reagent.
The human Cacna2d1-expressing 293 cells obtained in paragraph b) were cultured in large scale in DMEM (Invitrogen Corp.) supplemented with 10% fetal bovine serum (Cansera International, Inc.) and 500 μg/ml G418 (Invitrogen Corp.), and the cells were collected. A protease inhibitor (Complete EDTA free (Roche Applied Science)) was added in an amount recommended for the reagent to a binding assay buffer (10 mM MOPS (pH 7.4), 10 mM HEPES (pH 7.4), 100 mM NaCl) to prepare a membrane fraction preparation buffer. The collected cells were washed with the membrane fraction preparation buffer and then homogenized using an ultrasonicator. Then, the homogenate was centrifuged at 12,000 rpm at 4° C. for 1 hour using a centrifuge. The supernatant was discarded, and the precipitate was suspended in the membrane fraction preparation buffer. The procedure from the ultrasonication using a ultrasonicator to the suspension of the precipitate after centrifugation was further repeated three times, and the obtained suspension was used as a human Cacna2d1-expressing cell membrane fraction. The total level of proteins contained in the membrane fraction was calculated from UV absorbance at a wavelength of 280 nm.
The human Cacna2d1-expressing cell membrane fraction and GBP labeled with a radioisotope ^3H (hereinafter, referred to as ^3H-GBP; Tocris Cookson Ltd.) were diluted with a binding assay buffer (10 mM MOPS (pH 7.4), 10 mM HEPES (pH 7.4), 100 mM NaCl) at a final concentration of 2.5 mg/ml in terms of the total protein level and a final ^3H-GBP concentration of 4.5 nM, respectively, to prepare 120 μl of a reaction solution, which was in turn left standing at 4° C. for 3 hours. This reaction product was added to wells of a filter plate (UniFilter 350 GF/B (Whatman)) and filtered through the filter. Then, a washing procedure involving the addition of 350 μl of a binding assay buffer (10 mM MOPS (pH 7.4), 10 mM HEPES (pH 7.4), 100 mM NaCl) and filtration through the filter was repeated three times. The filter plate was thoroughly dried, and the underside was sealed. After addition of 50 μl of Microscint 20 (PerkinElmer Inc.), the upper surface was also sealed, and radiation derived from the radioisotope ^3H remaining on the filter was counted using TopCount (PerkinElmer Inc.). From the obtained value, a value obtained by adding unlabeled GBP (SIGMA-ALDRICH INC.) at a final concentration of 20 μM to the present assay was subtracted as that derived from nonspecific adsorption, and the obtained value was used as the specific binding level of ^3H-GBP to Cacna2d1 (unit: “count”).
Each test compound was added at various concentrations to the Cacna2d1/GBP binding reaction detection assay constructed in paragraph a), and the binding level was measured by the method described in paragraph a). Then, with the Cacna2d1/GBP specific binding level obtained by the addition of the compound at a concentration of x nM defined as “binding level [x]” and the Cacna2d1/GBP binding inhibitory rate thereagainst defined as “inhibitory rate [x]”, the inhibitory rate (%) was determined based on the following equation: Inhibitory rate [x](%)=(1−(binding level [x]/binding level))×100, wherein the binding level refers to the binding level of ^3H-GBP obtained without the addition of the compound.
The inhibitory rate was plotted against the concentration.
As usually defined, the IC50 is the concentration at which inhibition is half-maximal. As to `CCC(C)C1=CC2C(C1)CC2(CN)CC(=O)O` (mixture of isomers) [Example 13, (±)-[(1S,5R,6R)-6-aminomethyl-3-sec-bicyclo[3.2.0]hept-3-en-6-yl]acetic acid], the IC50 came out at 200 nM. Consider `NC[C@@]1(CC(=O)O)C[C@@H]2CC=C[C@@H]21` (racemic) [Example 1, (±)-[(1S,5R,6R)-6-(aminomethyl)bicyclo[3.2.0]hept-3-en-6-yl]acetic acid], for which the IC50 is 51 nM. On the same count and under the same terms, the figure for `CC1=C[C@H]2[C@@H](C1)C[C@@]2(CN)CC(=O)O` (racemic) [Example 7, (±)-[(1S,5R,6R)-6-aminomethyl-3-methylbicyclo[3.2.0]hept-3-en-6-yl]acetic acid] is 36 nM; for `CCC1=C[C@H]2[C@@H](C1)C[C@@]2(CN)CC(=O)O` (racemic) [Example 8, (±)-[(1S,5R,6R)-6-aminomethyl-3-ethylbicyclo[3.2.0]hept-3-en-6-yl]acetic acid] it is 28 nM; for `CCCC1=C[C@H]2[C@@H](C1)C[C@@]2(CN)CC(=O)O` (racemic) [Example 9, (±)-[(1S,5R,6R)-6-aminomethyl-3-propylbicyclo[3.2.0]hept-3-en-6-yl]acetic acid] it is 32 nM. On the same count and under the same terms, the figure for `CCCCC1=C[C@H]2[C@@H](C1)C[C@@]2(CN)CC(=O)O` (racemic) [Example 10, (±)-[(1S,5R,6R)-6-aminomethyl-3-butylbicyclo[3.2.0]hept-3-en-6-yl]acetic acid] is 28 nM; for `CC(C)C1=C[C@H]2[C@@H](C1)C[C@@]2(CN)CC(=O)O` (racemic) [Example 11, (±)-[(1S,5R,6R)-6-aminomethyl-3-isopropylbicyclo[3.2.0]hept-3-en-6-yl]acetic acid] it is 89 nM; for `CC(C)CC1=C[C@H]2[C@@H](C1)C[C@@]2(CN)CC(=O)O` (racemic) [Example 12, (±)-[(1S,5R,6R)-6-aminomethyl-3-isobutylbicyclo[3.2.0]hept-3-en-6-yl]acetic acid] it is 32 nM. The same measure, in the same setting: the figure for `NC[C@@]1(CC(=O)O)C[C@@H]2CC(C3CCCC3)=C[C@@H]21` (racemic) [Example 14, (±)-[(1S,5R,6R)-6-aminomethyl-3-cyclopentylbicyclo[3.2.0]hept-3-en-6-yl]acetic acid] is 55 nM; for `C=CCC1=C[C@H]2[C@@H](C1)C[C@@]2(CN)CC(=O)O` (racemic) [Example 15, (±)-[(1S,5R,6R)-6-aminomethyl-3-allylbicyclo[3.2.0]hept-3-en-6-yl]acetic acid] it is 73 nM.

Consider `C[C@]12C=CC[C@H]1C[C@]2(CN)CC(=O)O` (racemic) [Example 16, (±)-[(1S,5R,6S)-6-aminomethyl-5-methylbicyclo[3.2.0]hept-3-en-6-yl]acetic acid], for which the IC50 came out at 65 nM. Regarding `CC1C=C[C@@H]2[C@H]1C[C@@]2(CN)CC(=O)O` (mixture of isomers) [Example 17, (±)-[(1S,5R,6R)-6-aminomethyl-2-methylbicyclo[3.2.0]hept-3-en-6-yl]acetic acid], the IC50 is 120 nM. In the case of `CC1=C(C)[C@H]2[C@@H](C1)C[C@@]2(CN)CC(=O)O` (racemic) [Example 20, (±)-[(1S,5R,6R)-6-aminomethyl-3,4-dimethylbicyclo[3.2.0]hept-3-en-6-yl]acetic acid p-toluenesulfonate], the 50% inhibitory concentration (IC50) amounted to 100 nM. The same measure, in the same setting: the figure for `CSCC1=C[C@H]2[C@@H](C1)C[C@@]2(CN)CC(=O)O` (racemic) [Example 24, (±)-{(1R,5R,6R)-6-aminomethyl-3-[(methylthio)methyl]bicyclo[3.2.0]hept-3-en-6-yl}acetic acid] is 85 nM.

As for `CCC1=C[C@@H]2[C@H](C1)C[C@]2(CN)CC(=O)O` (single isomer, unassigned) [Example 21], the IC50 is 14 nM. On the same count and under the same terms, the figure for `CCC1=C[C@H]2[C@@H](C1)C[C@@]2(CN)CC(=O)O` (single isomer, unassigned) [Example 23] is 41 nM; for `NC[C@]1(CC(=O)O)C[C@H]2CC=C[C@H]21` [Example 2, [(1R,5S,6S)-6-(aminomethyl)bicyclo[3.2.0]hept-3-en-6-yl]acetic acid] it is 27 nM. Consider `NC[C@]1(CC(=O)O)C[C@H]2CC=C[C@H]21` [Example 5, [(1R,5S,6S)-6-(aminomethyl)bicyclo[3.2.0]hept-3-en-6-yl]acetic acid hydrochloride], for which the IC50 was determined as 24 nM.

As for `Cl.NC[C@]1(CC(=O)O)C[C@H]2CC=C[C@H]21` [Example 6, [(1R,5S,6S)-6-(aminomethyl)bicyclo[3.2.0]hept-3-en-6-yl]acetic acid benzenesulfonate], the IC50 is 26 nM. Consider `CCC1=C[C@@H]2[C@H](C1)C[C@]2(CN)CC(=O)O` [Example 22, [(1R,5S,6S)-6-aminomethyl-3-ethylbicyclo[3.2.0]hept-3-en-6-yl]acetic acid p-toluenesulfonate], for which the concentration for half-maximal inhibition (IC50) was 10 nM. `CCC1=C[C@@H]2[C@H](C1)C[C@]2(CN)CC(=O)O` [Example 31, [(1R,5S,6S)-6-(aminomethyl)-3-ethylbicyclo[3.2.0]hept-3-en-6-yl]acetic acid benzenesulfonate]: the 50% inhibitory concentration (IC50) turned out to be 14 nM.

Still in this data set, the particulars now being: concentration inhibiting 50% of Cacna2d1/GBP binding, 3H-GBP 4.5 nM, 4° C., read-out: IC50.
In the case of `CC(=O)OCC1=C[C@H]2[C@@H](C1)C[C@@]2(CN)CC(=O)O` (racemic) [Example 18, (±)-[(1R,5R,6R)-3-(acetoxymethyl)-6-(aminomethyl)bicyclo[3.2.0]hept-3-en-6-yl]acetic acid], the IC50 turned out to be 670 nM.

The next data set deals with mice suffering from mechanical hyperalgesia. Nature of the data set: Mechanical hyperalgesia assay (von Frey filament pain score). In kind it is in vivo. To be noted: oral administration, dose that offers 50% improvement relative to the pain score of vehicle-administered group. On the procedure: In the present invention, mice suffering from mechanical hyperalgesia were used in evaluation.
The mice were acclimatized for 30 minutes in a plastic cage for measurement. Then, the test compound was orally administered to the mice, which were in turn evaluated for mechanical hyperalgesia at a measurement time predetermined by a person in charge of the test. The evaluation of mechanical hyperalgesia was conducted by a partial modification of the method of Takasaki et al. (Pain 86 95-101, 2000) to confirm the effect of the test compound on mechanical hyperalgesia. Specifically, mechanical hyperalgesia was evaluated by assessing, based on scores according to the following criteria, behavior induced by pressing 1.4 g of von Frey filament onto the sole of the animal:
0: no response, 1: withdrawal from von Frey filament, and 2: shaking or licking of the hind paw immediately after the stimulation.
In one measurement, 6 stimulations were given to the mice, and the total score was used as a pain score.
The test compound was evaluated by calculating ID50, which is the dose of the compound that offers 50% improvement relative to the pain score of a vehicle-administered group.
For the molecule `NC[C@]1(CC(=O)O)C[C@H]2CC=C[C@H]21` [Example 2, [(1R,5S,6S)-6-(aminomethyl)bicyclo[3.2.0]hept-3-en-6-yl]acetic acid], the ID50 was determined as 10.4 mg/kg.

Test system in a further data set: not given
Assay: not given
Conditions: not given
What is called melting point is the temperature, or range, at which the solid turns liquid. Regarding `CCC1=C[C@H]2[C@@H](C1)C[C@@]2(CNO)CC(=O)O.Cl` (racemic), the melting point is 98 to 99 °C. `Cl.NC[C@]1(CC(=O)O)C[C@H]2CC=C[C@H]21` [Example 6, [(1R,5S,6S)-6-(aminomethyl)bicyclo[3.2.0]hept-3-en-6-yl]acetic acid benzenesulfonate] yielded a melting point of 161 to 162 °C.

The next data set concerns postherpetic neuralgia.
Assay: not given
To be noted: patients' own evaluations; Non-Patent Document 3; cited from earlier work.
With `NCC1(CC(=O)O)CCCCC1` [gabapentine], the “efficacy in the treatment of postherpetic neuralgia” value is reported as “approximately 60%”.

The test system of a further data set is painful diabetic neuropathy.
Assay: not given
To be noted: patients' own evaluations; Non-Patent Document 4; cited from earlier work.
For the molecule `CC(C)C[C@H](CN)CC(=O)O` [pregabalin], the “efficacy in the treatment of painful diabetic neuropathy” value is “approximately 50%”.
